Measurements taken from publication PMC4014123 (Acta Crystallographica Section D: Biological Crystallography, 2014).
“Also recorded” adds a separate entry of the source. Like-named read-outs stand apart in the source and are kept apart here.

Molecular target: Cp-NanI (Clostridium perfringens, UniProt A0A0H2YQR1)
Experiment: biochemical

Cp-NanI, sequence (A0A0H2YQR1 243-694 limits assumed): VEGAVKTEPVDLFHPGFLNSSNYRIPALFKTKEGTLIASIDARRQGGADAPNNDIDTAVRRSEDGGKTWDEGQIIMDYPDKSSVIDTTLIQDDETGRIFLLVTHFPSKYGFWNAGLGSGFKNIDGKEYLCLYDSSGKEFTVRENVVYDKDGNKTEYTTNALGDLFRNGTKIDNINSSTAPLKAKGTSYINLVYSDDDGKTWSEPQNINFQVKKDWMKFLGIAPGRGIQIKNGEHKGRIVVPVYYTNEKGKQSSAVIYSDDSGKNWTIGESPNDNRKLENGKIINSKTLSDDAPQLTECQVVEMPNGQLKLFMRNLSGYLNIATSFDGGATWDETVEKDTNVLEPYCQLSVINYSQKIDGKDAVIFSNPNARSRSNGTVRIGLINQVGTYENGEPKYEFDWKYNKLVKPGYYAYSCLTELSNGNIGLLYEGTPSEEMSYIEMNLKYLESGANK

Compound `COc1ccc(C2CC(=O)c3c(cc(O)c(C/C=C(\C)CCC=C(C)C)c3O)O2)cc1O` (stereo not shown) [4′-O-Methyldiplacone, 6-[(2E)-3,7-dimethylocta-2,6-dienyl]-5,7-dihydroxy-2-(3-hydroxy-4-methoxyphenyl)-2,3-dihydrochromen-4-one] has an IC50 of 12.9 µM.

“6-[(2E)-3,7-dimethylocta-2,6-dienyl]-5,7-dihydroxy-2-(3-hydroxy-4-methoxyphenyl)-2,3-dihydrochromen-4-one [3′-O-Methyldiplacone]” showed an IC50 (pH 5, read-out: IC50) of 14.3 µM.

For `O=C1C[C@@H](c2ccc(O)c(O)c2)Oc2cc(O)cc(O)c21` [Eriodictyol, (2S)-2-(3,4-dihydroxyphenyl)-5,7-dihydroxy-4-chroman-one, reference compound], the IC50 was 16.4 µM.

With `CC(C)=CCC/C(C)=C/Cc1c(O)cc2c(c1O)C(=O)C[C@@H](c1ccc(O)cc1)O2` [Mimulone, (2S)-6-[(2E)-3,7-dimethylocta-2,6-dienyl]-5,7-dihydroxy-2-(4-hydroxyphenyl)-2,3-dihydrochromen-4-one] the IC50 was 6.1 µM.

With `CC(C)=CCC/C(C)=C/Cc1c(O)cc2c(c1O)C(=O)CC(c1ccc(O)c(O)c1)O2` (stereo not shown) [Diplacone, 2-(3,4-dihydroxyphenyl)-6-[(2E)-3,7-dimethylocta-2,6-dienyl]-5,7-dihydroxy-2,3-dihydrochromen-4-one] the IC50 was 0.11 µM, the “inhibition kinetics / mechanism” value was “competitive kinetics; also recorded: time-dependent inhibitor” and the “k 5” value was 0.201 ± 0.003 min⁻¹. The “k 6” value was 0.0017 ± 0.004 min⁻¹, the Ki (K i) was 0.04 µM and the Ki (K i ^app) was 0.065 ± 0.008 µM.
